Measured values from patent US5922713A, “Inhibition of nitric oxide synthase” (priority 1997, dated 1999).

Legend:
murine 3T3 fibroblasts = assay: nitrite formation by interferon-γ/LPS stimulated murine 3T3 fibroblasts (Example 2); assay type: cell-based; conditions: for inhibition at 7.8 µM: conc. 7.8 μM; for inhibition at 7.8 µM / inhibition at 15.6 µM / inhibition at 31.2 µM / inhibition at 62.5 µM: 48 hours; for inhibition at 15.6 µM: conc. 15.6 μM; for inhibition at 31.2 µM: conc. 31.2 μM; for inhibition at 62.5 µM: conc. 62.5 μM
Experimental: Nitric oxide synthase is induced in 3T3 fibroblasts from mice (1×10^5 /ml) by a mixture of LPS (055:b5 from E. coli.), 1 μg/ml) and murine interferon-γ (50 U/ml). The cells were cultured with and without inhibitors for 48 hours, and nitrite was determined in culture supernatants as a measure of NO formation by the cells. The ratio of nitrite to nitrate, the second product of decomposition of NO, remains constant by treatment with the inhibitor. Nitrite determination was carried out using the Greiss Ilosvay's reagent, which was mixed with an equal volume of culture supernatant and the amount of dye formed was measured by UV absorption at 550 nm in a microplate reader.

[1] = biological target: T1, recombinant rat neuronal NO synthase (Rattus norvegicus, UniProt P29476); assay: NO synthase activity, formation of tritiated citrulline from tritiated L-arginine (rat neuronal); assay type: biochemical
T1 construct: made in house
Experimental: (§1) It has been discovered that C1' tetrahydroaminobiopterin inhibits the stimulation of NOSs by 10 μM tetrahydrobiopterin with an IC50 (50% inhibitory concentration) of 1 μM (rat neuronal NOS), or 7 μM (murine inducible NOS) as assayed by formation of tritiated citrulline from tritiated L-arginine according to Mayer, et al., "Molecular mechanisms of inhibition of porcine brain nitric oxide synthase by the antinociceptive drug 7-nitro-indazole," Neuropharmacology, 33:1253-1259 (1994), the teachings of which are incorporated herein by reference. In tissue culture tetrahydroaminobiopterin (I) reduced the formation of nitrites (a breakdown product of nitric oxide) when formation was triggered in murine NIH-3T3 by treatment with a combination of murine interferon-y (250 U/ml) and lipopolysaccharide (1 μg/ml) ("LPS"). […] In one embodiment, rat liver phenylalanine-4-hydroxylase was inhibited by 1 mM tetrahydroaminobiopterin only 30% irrespective of the tetrahydroaminobiopterin concentrations used (3-300 μM). IC50 of tetrahydroaminobiopterin (I) for sheep liver dihydropterin reductase is 20 μM, again irrespective of the tetrahydroaminobiopterin concentrations used.
NO synthase activity: NO synthase activity was measured as the formation of [2,3,4,5-^3 H]citrulline from L-[2,3,4,5-^3 H]arginine. This was conducted by the method of Mayer, et al., "Molecular mechanisms of inhibition of porcine brain nitric oxide synthase by the antinociceptive drug 7-nitro-indazole," Neuropharmacology, 33:1253-1259 (1994). Incubation mixtures (0.1 ml) contain 50 mM triethanolamine/HCl buffer, pH 7.0, 0.1 μg purified recombinant rat neuronal NO synthase (tetrahydrobiopterin-free, prepared according to the teachings of List et al., Biochem. J., 315:57-63 (1996)), the teachings of which are incorporated herein by reference., 0.1 mM L-2,3,4,5-^3 H]arginine (approx 6000 counts per minute). 0.5 mM CaCl2, 10 μg/ml calmodulin, 0.2 mM NADPH ([…], reduced form), 10 μM 6R-tetrahydrobiopterin, 0-1000 μM NO synthase inhibitor, 5 μM flavin adenine dinucleotide("FAD"), 5 μM flavin mononucleotide ("FMN"), and 0.2 mM 3-[3-chloramidopropyl)dimethylamonio]-1-propanesulfonate ("CHAPS"). After incubation for 10 minutes at 37° C., the reaction is stopped by the addition of 0.9 ml 20 mM sodium acetate buffer, pH 5.5, containing 1 mM L-citrulline. The mixture is then applied to ion exchange resin columns (Dowex AG50W-XB, Dow Chemical, Midland, Mich.), the eluate and 1 ml water for washing the column are collected. Next, 7 ml scintillation cocktail are added and the radioactivity is determined. The radioactivity detected by scintillation corresponds to the amount of L-citrulline formed in the NO synthase reaction.

Sprague-Dawley rats = assay: in vivo toxicity test, intraperitoneal injection in Sprague-Dawley rats; conditions: 10 mg, rats 240-250 g body weight
Experimental: (§2) The therapeutic use of C1' aminobiopterin is facilitated by its low toxicity, both in vitro and in vivo. A useful in vitro toxicity screen which is predictive of in vivo response was to use cultured 3T3 murine fibroblasts. […] In an in vivo test, intraperitoneal injection of a solution containing 10 mg of tetrahydroaminobiopterin (I) dihydrochloride caused no toxicity in Sprague-Dawley rats (240-250 g body weight).

[2] = biological target: rat neuronal nitric oxide synthase (Rattus norvegicus, UniProt P29476); assay: binding of tritiated tetrahydroaminobiopterin (Klatt et al.), affinity for rat neuronal nitric oxide synthase; conditions: vs naturally occurring cofactor tetrahydrobiopterin
Sequence of rat neuronal nitric oxide synthase (P29476 whole entry): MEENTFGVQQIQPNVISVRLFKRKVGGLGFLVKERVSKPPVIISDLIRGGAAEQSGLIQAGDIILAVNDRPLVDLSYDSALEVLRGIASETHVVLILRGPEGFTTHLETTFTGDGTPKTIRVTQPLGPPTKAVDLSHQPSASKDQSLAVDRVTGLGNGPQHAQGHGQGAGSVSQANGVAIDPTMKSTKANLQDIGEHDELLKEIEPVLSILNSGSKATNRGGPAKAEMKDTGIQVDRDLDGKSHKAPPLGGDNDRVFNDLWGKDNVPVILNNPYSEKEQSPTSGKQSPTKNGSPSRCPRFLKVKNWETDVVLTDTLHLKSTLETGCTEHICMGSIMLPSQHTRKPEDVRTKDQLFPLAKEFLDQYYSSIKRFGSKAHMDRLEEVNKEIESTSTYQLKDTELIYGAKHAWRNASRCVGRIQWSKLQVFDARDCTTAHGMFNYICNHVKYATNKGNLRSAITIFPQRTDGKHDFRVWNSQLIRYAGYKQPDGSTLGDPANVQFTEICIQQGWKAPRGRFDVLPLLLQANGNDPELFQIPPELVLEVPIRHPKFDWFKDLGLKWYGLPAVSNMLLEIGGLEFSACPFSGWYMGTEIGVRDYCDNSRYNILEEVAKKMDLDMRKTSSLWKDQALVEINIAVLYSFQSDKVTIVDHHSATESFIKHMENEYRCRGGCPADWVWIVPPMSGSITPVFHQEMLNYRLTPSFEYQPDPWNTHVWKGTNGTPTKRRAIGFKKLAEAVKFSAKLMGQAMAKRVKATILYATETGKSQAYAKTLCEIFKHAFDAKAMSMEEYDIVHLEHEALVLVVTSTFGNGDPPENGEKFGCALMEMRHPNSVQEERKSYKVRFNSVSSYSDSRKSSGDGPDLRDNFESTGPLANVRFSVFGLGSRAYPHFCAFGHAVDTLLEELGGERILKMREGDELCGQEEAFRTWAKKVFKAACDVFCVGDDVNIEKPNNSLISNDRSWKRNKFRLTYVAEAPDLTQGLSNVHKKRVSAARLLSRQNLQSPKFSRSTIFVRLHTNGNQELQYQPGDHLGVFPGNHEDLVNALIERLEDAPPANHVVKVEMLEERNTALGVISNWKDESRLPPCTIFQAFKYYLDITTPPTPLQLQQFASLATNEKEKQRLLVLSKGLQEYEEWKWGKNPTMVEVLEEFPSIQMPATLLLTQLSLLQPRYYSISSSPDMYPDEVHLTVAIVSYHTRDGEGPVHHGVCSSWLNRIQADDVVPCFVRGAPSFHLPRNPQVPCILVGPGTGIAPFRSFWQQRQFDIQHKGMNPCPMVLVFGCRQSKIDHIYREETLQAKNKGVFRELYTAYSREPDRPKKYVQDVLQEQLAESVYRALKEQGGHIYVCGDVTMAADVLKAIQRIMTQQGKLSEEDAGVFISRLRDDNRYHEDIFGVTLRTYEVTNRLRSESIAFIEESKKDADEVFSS
Experimental: These determinations are assayed with binding of tritiated tetrahydroaminobiopterin according to the method of Klatt et al., "The pteridine binding site of brain nitric oxide synthase," J.Biol.Chem., 269:13861-13866 (1994), the teachings of which are incorporated herein by reference.

[3] = biological target: inducible murine nitric oxide synthase (Mus musculus, UniProt P29477); assay: binding of tritiated tetrahydroaminobiopterin (Klatt et al.), affinity for inducible murine nitric oxide synthase; conditions: vs naturally occurring cofactor tetrahydrobiopterin
murine NIH-3T3 = assay: formation of nitrites triggered in murine NIH-3T3 by interferon-γ (250 U/ml) and LPS; assay type: cell-based
Experimental: as §1

3T3 murine fibroblasts = assay: in vitro toxicity screen in cultured 3T3 murine fibroblasts; assay type: cell-based; conditions: 250 μM, up to 48 hours
Experimental: as §2

[4] = tested on: rat liver phenylalanine-4-hydroxylase; assay: inhibition of rat liver phenylalanine-4-hydroxylase; assay type: biochemical; conditions: 1 mM; irrespective of the tetrahydroaminobiopterin concentrations used (3-300 μM)
Experimental: as §1

murine inducible NOS = murine inducible NOS (Mus musculus, UniProt P29477); assay: NO synthase activity, formation of tritiated citrulline from tritiated L-arginine (murine inducible); assay type: biochemical; conditions: 10 μM tetrahydrobiopterin, read-out: IC50 (50% inhibitory concentration), inhibition of stimulation of NOSs by tetrahydrobiopterin
Experimental: as §1

[5] = tested on: cultivated porcine endothelial cells; assay: NOS inhibition in cultivated porcine endothelial cells; assay type: cell-based; conditions: Sus scrofa, Endothelial cell, read-out: IC50, inhibitory effect on NOS
NOSs = assay: specificity for NOSs; assay type: biochemical
Experimental: as §1

[6] = conc. 0.01 μM, 10 μM 6R-tetrahydrobiopterin
[7] = conc. 0.1 μM, 10 μM 6R-tetrahydrobiopterin
[8] = conc. 1.0 μM, 10 μM 6R-tetrahydrobiopterin
[9] = conc. 3.0 μM, 10 μM 6R-tetrahydrobiopterin
[10] = conc. 10 μM, 10 μM 6R-tetrahydrobiopterin
[11] = conc. 30 μM, 10 μM 6R-tetrahydrobiopterin
[12] = conc. 100 μM, 10 μM 6R-tetrahydrobiopterin
[13] = conc. 1000 μM, 10 μM 6R-tetrahydrobiopterin

`Nc1nc(N)c2c(n1)NCC(CO)N2` (stereo not drawn) [(III), 2,4-diamino-5,6,7,8-tetrahydro-6-hydroxymethyl pteridine, reference compound] was tested, and the activity in words (murine 3T3 fibroblasts; 7.5 μM) was “no activity”, the inhibition at 7.8 µM (murine 3T3 fibroblasts; Mus musculus, Fibroblast) was 0% and the inhibition at 15.6 µM (murine 3T3 fibroblasts; Mus musculus, Fibroblast) was 8%. It also gave an inhibition at 31.2 µM (murine 3T3 fibroblasts; Mus musculus, Fibroblast) of 16%, an inhibition at 62.5 µM (murine 3T3 fibroblasts; Mus musculus, Fibroblast) of 50% and an NO synthase activity [1, 6] of 325 nmol/mg/min. The inhibition at 0.01 µM [1, 6] was 3%, the NO synthase activity [1, 7] was 318 nmol/mg/min and the inhibition at 0.1 µM [1, 7] was 5%. For the same compound, the NO synthase activity [1, 8] was 306 nmol/mg/min, the inhibition at 1 µM [1, 8] was 8% and the NO synthase activity [1, 9] was 304 nmol/mg/min. For the same compound, the inhibition at 3 µM [1, 9] was 9%, the NO synthase activity [1, 10] was 316 nmol/mg/min and the inhibition at 10 µM [1, 10] was 5%. It also gave an NO synthase activity [1, 11] of 319 nmol/mg/min, an inhibition at 30 µM [1, 11] of 4% and an NO synthase activity [1, 12] of 274 nmol/mg/min. The inhibition at 100 µM [1, 12] was 18%, the NO synthase activity [1, 13] was 136 nmol/mg/min and the inhibition at 1000 µM [1, 13] was 60%.

`C[C@H](O)[C@H](O)C1CNc2nc(N)nc(N)c2N1` (stereo partly drawn) was tested, and the toxicity in vivo (Sprague-Dawley rats) was “no toxicity”.

For `C[C@H](O)[C@H](O)C1=Nc2c(N)nc(N)nc2NC1` [(IV), 2,4-diamino-7,8-dihydro-6-(L-erythro-1,2-dihydroxylpropyl)pteridine], the “affinity for nitric oxide synthase relative to tetrahydrobiopterin (fold higher)” value [2] was “about 20 -fold”, the NO synthase activity [1, 6] was 294 nmol/mg/min and the NO synthase activity [1, 7] was 283 nmol/mg/min. The NO synthase activity [1, 8] was 242 nmol/mg/min, the NO synthase activity [1, 10] was 110 nmol/mg/min and the NO synthase activity [1, 12] was 48 nmol/mg/min. The inhibition at 100 µM [1, 12] was 82%, the NO synthase activity [1, 13] was 25 nmol/mg/min and the “affinity for nitric oxide synthase relative to tetrahydrobiopterin (fold higher)” value [3] was “about 2.5 -fold”.

`C[C@H](O)[C@H](O)C1CNc2nc(N)nc(N)c2N1` (stereo partly drawn) [(I), 2,4-diamino-5,6,7,8-tetrahydro-6-(L-erythro-1,2-dihydroxylpropyl)pteridine] was tested, and the IC50 (murine NIH-3T3; Mus musculus, NIH3T3, murine interferon-γ (250 U/ml) and LPS (1 μg/ml)) was 13 µM, the cellular toxicity (murine NIH-3T3; murine NIH-3T3, nitrite formation test) was “without apparent cellular toxicity” and the “affinity for nitric oxide synthase relative to tetrahydrobiopterin (fold higher)” value [2] was “about 20 -fold”. The inhibition at 7.5 µM (murine 3T3 fibroblasts; Mus musculus, Fibroblast, 7.5 μM) was 44%, the inhibition at 7.8 µM (murine 3T3 fibroblasts; Mus musculus, Fibroblast) was 44% and the inhibition at 15.6 µM (murine 3T3 fibroblasts; Mus musculus, Fibroblast) was 65%. For the same compound, the inhibition at 31.2 µM (murine 3T3 fibroblasts; Mus musculus, Fibroblast) was 77%, the inhibition at 62.5 µM (murine 3T3 fibroblasts; Mus musculus, Fibroblast) was 88% and the “NO synthase inhibitor potency compared with (III)” value (murine 3T3 fibroblasts; compared with (III)) was “more potent NO synthase inhibitor”. For the same compound, the cytotoxicity (3T3 murine fibroblasts) was “no cytotoxicity”, the “inhibition of phenylalanine-4-hydroxylase” value [4] was 30% and the IC50 ([1]; 10 μM tetrahydrobiopterin, rat neuronal NOS, read-out: IC50 (50% inhibitory concentration), inhibition of stimulation of NOSs by tetrahydrobiopterin) was 1 µM. The NO synthase activity [1, 6] was 279 nmol/mg/min, the NO synthase activity [1, 7] was 262 nmol/mg/min and the NO synthase activity [1, 8] was 181 nmol/mg/min. For the same compound, the NO synthase activity [1, 9] was 125 nmol/mg/min, the inhibition at 3 µM [1, 9] was 58% and the NO synthase activity [1, 10] was 72 nmol/mg/min. The NO synthase activity [1, 11] was 50 nmol/mg/min, the inhibition at 30 µM [1, 11] was 83% and the NO synthase activity [1, 12] was 35 nmol/mg/min. The NO synthase activity [1, 13] was 24 nmol/mg/min, the “affinity for nitric oxide synthase relative to tetrahydrobiopterin (fold higher)” value [3] was “about 2.5 -fold” and the IC50 (murine inducible NOS) was 7 µM. For the same compound, the IC50 [5] was 100 µM and the “specificity for NOSs” value (NOSs) was “highly specific for NOSs”.
